Data: PubChem BioAssay (NCI)
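48-hour exposure; five concentrations; linearly interpolated endpoints. The concentration for 50% growth inhibition is given as GI50. TGI is the concentration that stops growth completely.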

Key:
[1] = tested on: HS 578T breast; assay: DTP human tumour cell line panel, 48 h
[2] = tested on: MDA-N; assay: DTP human tumour cell line panel, 48 h

Row | Structure (SMILES) | TGI [1] [µM] | TGI [2] [µM] | GI50 [1] [µM]
1 | Nc1nc(-c2cccs2)cs1 | > 100 | > 100 | –
2 | COc1ccc2c(c1)C(=O)c1c-2c(NCCN(C)C)nc2ccccc12 | 26.8 | – | 9.28
3 | Cc1nc2sc(C(=O)Nc3cccc(Br)c3)c(N)c2cc1C(O)c1ccccc1 (stereo unspecified) | 9.21 | – | 0.424
4 | Clc1ccc2c(NCCNc3nc(N4CCCC4)nc4ccccc34)ccnc2c1 | 7 | – | 2.34
5 | COc1cc2c3c(n(CCCN4CCCC(O)C4)c(=O)c2cc1OC)-c1cc2c(cc1C3=O)OCO2 (stereo unspecified) | 2.11 | – | 0.874
6 | Cc1cc2nc(C(Cl)Cl)nc(-c3ccccc3)n2n1 | 14.5 | – | 2.65
7 | C=C(C)[C@@H]1CC[C@]2(C(N)=O)CC[C@]3(C)[C@H](CC[C@@H]4[C@@]5(C)C/C(=C/c6cccnc6)[C@H](O)C(C)(C)[C@@H]5CC[C@]43C)[C@@H]12 | > 100 | – | 8.3
8 | O=[N+]([O-])c1cc2c(c([N+](=O)[O-])c1)Nc1ccccc1O2 | > 100 | – | 7.22
9 | COc1cnc2c(c1)C(=O)c1c-2n(CCCNC(C)C)c(=O)c2cc([N+](=O)[O-])ccc12 | 3.24 | – | 0.938
10 | CCN(CC)CC[n+]1cc2cc(OC)c(OC)cc2c2ccc3cc4c(cc3c21)OCO4 | 5.54 | – | 0.604
11 | C=CCSSc1ncnc2c1ncn2C1OC(CO)C(O)C1O (stereo unspecified) | > 93.5 | – | 14.5
12 | Nc1ncnc2c1ncn2C1OC(COC2C(CO)OC(OC(C(=O)O)C(O)C(OP(=O)(O)O)C(O)C(=O)O)C(O)C2O)C(O)C1O (stereo unspecified) | 91.2 | – | –
13 | N#Cc1nn(-c2cc(=O)[nH]c3ccc(Br)cc23)c(N)c1C#N | > 100 | – | 64.9
14 | C=C1C(=O)O[C@H]2[C@H]1CC/C(COC(=O)NCc1cc(OC)cc(OC)c1)=C\CC[C@@]1(C)O[C@@H]21 | 23 | – | 4.12
15 | CCOC(=O)N1C=CC(=C2C(=C3C=CN(C(=O)OCC)C=C3)C(=C3C=CN(C(=O)OCC)C=C3)C2=C2C=CN(C(=O)OCC)C=C2)C=C1 | 85.6 | – | –
16 | Cc1cc(N(CCOS(C)(=O)=O)CCOS(C)(=O)=O)ccc1C=Nc1ccc(-c2csc(-c3ccc(Br)cc3)n2)cc1 | > 97.3 | 56.6 | –
17 | O=S(=O)(CCCCl)SCCCCl | 94.7 | > 76.2 | –
18 | Cc1nn(C)c2cc(N(C)c3ccnc(Nc4cccc(S(N)(=O)=O)c4)n3)ccc12 | > 25 | – | 7.26

Row | Structure (SMILES) | TGI [1] [µM] | TGI [2] [µM] | GI50 [1] [µM]
19 | O=C(O)c1ccccc1Nc1ccc2nnc(-c3ccncc3)n2n1 | 53.9 | – | 18.3
20 | COc1cc(N2CCC(N3CCN(C)CC3)CC2)ccc1Nc1ncc(Cl)c(Nc2ccccc2S(=O)(=O)C(C)C)n1 | 5.07 | – | 1.35
21 | CSC1(CC(=O)N2CCCCC2)C(=O)Nc2ccccc21 (stereo unspecified) | > 100 | – | –
22 | CC#CC(=O)N1CC[C@@H](n2c(=O)n(-c3ccc(Oc4ccccc4)cc3)c3c(N)ncnc32)C1 | > 100 | – | 22.5
23 | COc1ccc(C2CC(=O)c3c(O)c(OC)c(OC)c(OC)c3O2)cc1O (stereo unspecified) | > 100 | – | 0.0498
24 | O=C(NCCCCCCNC(=O)OCc1ccc2c(Cl)cc(Cl)c(O)c2n1)OCc1ccc2c(Cl)cc(Cl)c(O)c2n1 | 5.68 | – | 1.46
25 | Nc1nc(-c2ccc(Cl)cc2)cc(-c2ccccc2)c1-c1nc2ccccc2o1 | 40.9 | – | 12.7
26 | Nc1nc(-c2ccccc2)cc(-c2ccc(Cl)cc2)c1-c1nc2ccccc2o1 | 36.1 | – | 14.8
27 | CCOCCOC[C@H]1CCCN(c2ccnc3sc(C(N)=O)c(N)c23)C1 | > 100 | – | 44.1
28 | O=S(=O)(Nc1ccccn1)c1ccc(N=Nc2ccc(O)c3ncccc23)cc1 | 8.86 | – | 1.06
29 | Cc1ccc(C2=NN(c3ccc(S(N)(=O)=O)cc3)C(c3cn(-c4ccccc4)nc3-c3ccccc3)C2)cc1 (stereo unspecified) | > 100 | – | 18.3
30 | COc1ccc(C(c2cc3c(cc2O)OCO3)N2CCOCC2)cc1OC (stereo unspecified) | 19.9 | – | –
31 | C[C@@H]1OCC2(CCN(c3cnc(Sc4ccnc(N)c4Cl)c(N)n3)CC2)[C@@H]1N | > 100 | – | 61.8
32 | COc1cc(/C=C2\C[C@H]3[C@@H]4CC=C5C[C@@H](OC(C)=O)CC[C@]5(C)[C@H]4CC[C@]3(C)[C@H]2OC(C)=O)ccc1OCCN1CCCCC1 | 42.8 | – | 12.1
33 | COc1ccc2nc(-c3cc4c([nH]c5ccccc54)c(-c4ccc(F)c(F)c4)n3)[nH]c2c1 | 41.9 | – | 8.68
34 | Cc1c(-c2nnc(-c3cc(Cl)c(Cl)cc3Cl)o2)nnn1-c1ccnc2c(C(F)(F)F)cccc12 | 65.6 | – | 25.6
35 | Oc1c(CN2CCN(c3ccccc3F)CC2)cc(Br)c2cccnc12 | 55.5 | – | 1.82
